Measured values published in PubChem BioAssay (NCI).
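Growth conditions: 96-well plates. Treatment: test compound, 48 hours, 5 concentrations. Analysis: linear interpolation between bracketing concentrations; unreached endpoints set to highest concentration. The concentration for 50% growth inhibition is given as GI50. TGI: total growth inhibition.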

What was measured:
Assay in all cases: inhibition of tumour cell growth, NCI panel, 48 h; in the data active means GI50 below about 0.43 µM; inactive means the rest
HT29 colon = system: HT29 colon
SNB-75 CNS = system: SNB-75 CNS
LOX IMVI melanoma = system: LOX IMVI melanoma
PC-3 prostate = system: PC-3 prostate
SK-MEL-2 melanoma = system: SK-MEL-2 melanoma
RPMI-8226 leukemia = system: RPMI-8226 leukemia
MCF7 breast = system: MCF7 breast
TK-10 renal = system: TK-10 renal
UACC-62 melanoma = system: UACC-62 melanoma
786-0 renal = system: 786-0 renal
CCRF-CEM leukemia = system: CCRF-CEM leukemia
IGROV1 ovarian = system: IGROV1 ovarian
MDA-MB-231 breast = system: MDA-MB-231 breast
HOP-92 NSCLC = system: HOP-92 NSCLC
UO-31 renal = system: UO-31 renal
RXF 393 renal = system: RXF 393 renal
MALME-3M melanoma = system: MALME-3M melanoma
KM12 colon = system: KM12 colon
HCC-2998 colon = system: HCC-2998 colon
OVCAR-8 ovarian = system: OVCAR-8 ovarian
MOLT-4 leukemia = system: MOLT-4 leukemia
SK-OV-3 ovarian = system: SK-OV-3 ovarian
SR leukemia = system: SR leukemia
MDA-MB-435 = system: MDA-MB-435
OVCAR-5 ovarian = system: OVCAR-5 ovarian
SNB-19 CNS = system: SNB-19 CNS
A549 NSCLC = system: A549 NSCLC
HCT-15 colon = system: HCT-15 colon
SW-620 colon = system: SW-620 colon
EKVX NSCLC = system: EKVX NSCLC
HCT-116 colon = system: HCT-116 colon
CAKI-1 renal = system: CAKI-1 renal
MDA-N = system: MDA-N
NCI-H522 lung = system: NCI-H522 lung
SK-MEL-28 melanoma = system: SK-MEL-28 melanoma
UACC-257 melanoma = system: UACC-257 melanoma
HS 578T breast = system: HS 578T breast
COLO 205 colon = system: COLO 205 colon
NCI/ADR-RES ovarian = system: NCI/ADR-RES ovarian
SK-MEL-5 melanoma = system: SK-MEL-5 melanoma
M14 melanoma = system: M14 melanoma
SN12C renal = system: SN12C renal
NCI-H23 lung = system: NCI-H23 lung
DU-145 prostate = system: DU-145 prostate
NCI-H460 lung = system: NCI-H460 lung
SF-295 CNS = system: SF-295 CNS
U251 CNS = system: U251 CNS
ACHN renal = system: ACHN renal
OVCAR-4 ovarian = system: OVCAR-4 ovarian
HL-60(TB) leukemia = system: HL-60(TB) leukemia
SF-268 CNS = system: SF-268 CNS
K-562 leukemia = system: K-562 leukemia
T-47D breast = system: T-47D breast
HOP-62 NSCLC = system: HOP-62 NSCLC
A498 renal = system: A498 renal
NCI-H226 lung = system: NCI-H226 lung
OVCAR-3 ovarian = system: OVCAR-3 ovarian
SF-539 CNS = system: SF-539 CNS

N#Cc1ccc(NC(=O)C(CC(=O)OCc2ccccc2)NC(=O)OCc2ccccc2)cc1 (stereo not drawn)
inactive: GI50 (HT29 colon) > 100 µM | GI50 (SNB-75 CNS) > 100 µM | GI50 (LOX IMVI melanoma) > 100 µM | GI50 (PC-3 prostate) > 100 µM | GI50 (RPMI-8226 leukemia) > 100 µM | GI50 (MCF7 breast) > 100 µM | GI50 (TK-10 renal) > 100 µM | GI50 (UACC-62 melanoma) > 100 µM | GI50 (786-0 renal) > 100 µM | GI50 (CCRF-CEM leukemia) > 100 µM | GI50 (IGROV1 ovarian) > 100 µM | GI50 (MDA-MB-231 breast) > 100 µM | GI50 (HOP-92 NSCLC) > 100 µM | GI50 (UO-31 renal) > 100 µM | GI50 (RXF 393 renal) > 100 µM | GI50 (KM12 colon) > 100 µM | GI50 (OVCAR-8 ovarian) > 100 µM | GI50 (MOLT-4 leukemia) > 100 µM | GI50 (SK-OV-3 ovarian) > 100 µM | GI50 (SR leukemia) > 100 µM | GI50 (MDA-MB-435) > 100 µM | GI50 (OVCAR-5 ovarian) > 100 µM | GI50 (SNB-19 CNS) > 100 µM | GI50 (A549 NSCLC) > 100 µM | GI50 (HCT-15 colon) > 100 µM | GI50 (SW-620 colon) > 100 µM | GI50 (EKVX NSCLC) > 100 µM | GI50 (HCT-116 colon) > 100 µM | GI50 (CAKI-1 renal) > 100 µM | GI50 (MDA-N) > 100 µM | GI50 (NCI-H522 lung) > 100 µM | GI50 (SK-MEL-28 melanoma) > 100 µM | GI50 (UACC-257 melanoma) > 100 µM | GI50 (HS 578T breast) > 100 µM | GI50 (COLO 205 colon) > 100 µM | GI50 (NCI/ADR-RES ovarian) > 100 µM | GI50 (M14 melanoma) > 100 µM | GI50 (SN12C renal) > 100 µM | GI50 (NCI-H23 lung) > 100 µM | GI50 (NCI-H460 lung) > 100 µM | GI50 (SF-295 CNS) > 100 µM | GI50 (U251 CNS) > 100 µM | GI50 (ACHN renal) > 100 µM | GI50 (OVCAR-4 ovarian) > 100 µM
> 100 µM: TGI (HT29 colon) | TGI (SNB-75 CNS) | TGI (LOX IMVI melanoma) | TGI (PC-3 prostate) | TGI (SK-MEL-2 melanoma) | TGI (RPMI-8226 leukemia) | TGI (MCF7 breast) | TGI (TK-10 renal) | TGI (UACC-62 melanoma) | TGI (786-0 renal) | TGI (CCRF-CEM leukemia) | TGI (IGROV1 ovarian) | TGI (MDA-MB-231 breast) | TGI (HOP-92 NSCLC) | TGI (UO-31 renal) | TGI (RXF 393 renal) | TGI (MALME-3M melanoma) | TGI (KM12 colon) | TGI (HCC-2998 colon) | TGI (OVCAR-8 ovarian) | TGI (MOLT-4 leukemia) | TGI (SK-OV-3 ovarian) | TGI (SR leukemia) | TGI (MDA-MB-435) | TGI (OVCAR-5 ovarian) | TGI (SNB-19 CNS) | TGI (A549 NSCLC) | TGI (HCT-15 colon) | TGI (SW-620 colon) | TGI (EKVX NSCLC) | TGI (HCT-116 colon) | TGI (CAKI-1 renal) | TGI (MDA-N) | TGI (NCI-H522 lung) | TGI (SK-MEL-28 melanoma) | TGI (UACC-257 melanoma) | TGI (HS 578T breast) | TGI (COLO 205 colon) | TGI (NCI/ADR-RES ovarian) | TGI (SK-MEL-5 melanoma) | TGI (M14 melanoma) | TGI (SN12C renal) | TGI (NCI-H23 lung) | TGI (DU-145 prostate) | TGI (NCI-H460 lung) | TGI (SF-295 CNS) | TGI (U251 CNS) | TGI (ACHN renal) | TGI (OVCAR-4 ovarian)

CN1CCN(c2cc3nsnc3c3nsnc23)CC1
> 10 µM: TGI (HT29 colon) | TGI (SNB-75 CNS) | TGI (LOX IMVI melanoma) | TGI (PC-3 prostate) | TGI (RPMI-8226 leukemia) | TGI (MCF7 breast) | TGI (TK-10 renal) | TGI (UACC-62 melanoma) | TGI (786-0 renal) | TGI (HL-60(TB) leukemia) | TGI (CCRF-CEM leukemia) | TGI (IGROV1 ovarian) | TGI (SF-268 CNS) | TGI (MDA-MB-231 breast) | TGI (RXF 393 renal) | TGI (MALME-3M melanoma) | TGI (K-562 leukemia) | TGI (KM12 colon) | TGI (HCC-2998 colon) | TGI (OVCAR-8 ovarian) | TGI (MOLT-4 leukemia) | TGI (SK-OV-3 ovarian) | TGI (SR leukemia) | TGI (A549 NSCLC) | TGI (HCT-15 colon) | TGI (SW-620 colon) | TGI (T-47D breast) | TGI (EKVX NSCLC) | TGI (HOP-62 NSCLC) | TGI (CAKI-1 renal) | TGI (MDA-N) | TGI (SK-MEL-28 melanoma) | TGI (UACC-257 melanoma) | TGI (COLO 205 colon) | TGI (SK-MEL-5 melanoma) | TGI (M14 melanoma) | TGI (SN12C renal) | TGI (NCI-H23 lung) | TGI (DU-145 prostate) | TGI (SF-295 CNS)

CC(=O)c1cnc2oc3ccc(O)cc3c2c1-c1ccccc1
82.6 µM: TGI (OVCAR-3 ovarian)
> 100 µM: TGI (HT29 colon) | TGI (LOX IMVI melanoma) | TGI (PC-3 prostate) | TGI (SK-MEL-2 melanoma) | TGI (RPMI-8226 leukemia) | TGI (MCF7 breast) | TGI (TK-10 renal) | TGI (786-0 renal) | TGI (HL-60(TB) leukemia) | TGI (CCRF-CEM leukemia) | TGI (SF-268 CNS) | TGI (MDA-MB-231 breast) | TGI (HOP-92 NSCLC) | TGI (RXF 393 renal) | TGI (K-562 leukemia) | TGI (KM12 colon) | TGI (HCC-2998 colon) | TGI (OVCAR-8 ovarian) | TGI (MOLT-4 leukemia) | TGI (SR leukemia) | TGI (MDA-MB-435) | TGI (OVCAR-5 ovarian) | TGI (SNB-19 CNS) | TGI (NCI-H226 lung) | TGI (A549 NSCLC) | TGI (HCT-15 colon) | TGI (SW-620 colon) | TGI (EKVX NSCLC) | TGI (HCT-116 colon) | TGI (CAKI-1 renal) | TGI (MDA-N) | TGI (SK-MEL-28 melanoma) | TGI (UACC-257 melanoma) | TGI (HS 578T breast) | TGI (COLO 205 colon) | TGI (SK-MEL-5 melanoma) | TGI (M14 melanoma) | TGI (SN12C renal) | TGI (NCI-H23 lung) | TGI (DU-145 prostate) | TGI (NCI-H460 lung) | TGI (SF-295 CNS) | TGI (U251 CNS) | TGI (ACHN renal)
46.2 µM: TGI (SF-539 CNS)
70.4 µM: TGI (UACC-62 melanoma)
75 µM: TGI (NCI/ADR-RES ovarian)
inactive: GI50 (SNB-75 CNS) 2.57 µM | GI50 (IGROV1 ovarian) 5.04 µM | GI50 (SF-268 CNS) 27.7 µM | GI50 (KM12 colon) 40.8 µM | GI50 (NCI/ADR-RES ovarian) 19.6 µM
80.4 µM: TGI (T-47D breast)
45.4 µM: TGI (SK-OV-3 ovarian)
36.6 µM: TGI (OVCAR-4 ovarian)
22 µM: TGI (SNB-75 CNS)
81.2 µM: TGI (MALME-3M melanoma)
45 µM: TGI (IGROV1 ovarian)
88.6 µM: TGI (A498 renal)
